Experimental data taken from patent US20190352268A1, “CANNABINOID RECEPTOR MEDIATING COMPOUNDS” (The USA, as represented by the Secretary, Department of …, priority 2015, published 2019).
pKi: −log10 of the molar value. Where two headings read alike, the source gives them in different places.

Molecular target: CB1 (Mus musculus, UniProt P47746)
Experiment: CB1 radioligand displacement assay in mouse brain membranes
Type: binding
Set-up: radioligand displacement assay in mouse brain membranes; from tissue; host or cells: mouse brain membranes
Conditions: read-out: Ki CB1

CB1, sequence (P47746 whole entry): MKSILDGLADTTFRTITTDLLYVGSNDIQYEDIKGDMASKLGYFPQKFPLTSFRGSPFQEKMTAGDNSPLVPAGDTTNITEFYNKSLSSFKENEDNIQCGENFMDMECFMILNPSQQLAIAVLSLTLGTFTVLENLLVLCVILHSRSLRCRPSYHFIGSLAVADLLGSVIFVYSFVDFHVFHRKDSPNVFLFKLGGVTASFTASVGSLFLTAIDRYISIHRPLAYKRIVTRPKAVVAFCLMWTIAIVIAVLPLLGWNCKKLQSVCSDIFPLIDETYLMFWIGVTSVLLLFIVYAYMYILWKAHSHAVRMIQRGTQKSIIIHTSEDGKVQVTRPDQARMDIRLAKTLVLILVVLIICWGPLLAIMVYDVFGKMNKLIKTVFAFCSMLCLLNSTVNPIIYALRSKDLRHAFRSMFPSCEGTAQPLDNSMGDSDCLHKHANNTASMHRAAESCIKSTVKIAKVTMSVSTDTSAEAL

Compound	pKi (Table 1)	pKi (Table 2)
N/C(=N/C(=N\S(=O)(=O)c1ccc(Cl)cc1)N1CC(c2ccccc2)C(c2ccc(Cl)cc2)=N1)c1ccc(F)cc1 (single isomer, unassigned) [Compound 10E1]	–	8.19
N/C(=N/C(=N\S(=O)(=O)c1ccc(Cl)cc1)N1CC(c2ccccc2)C(c2ccc(Cl)cc2)=N1)c1ccc(F)cc1 (single isomer, unassigned) [Compound 10E2]	–	6.28
CC(C)(C)C(N)=NC(=NS(=O)(=O)c1ccc(Cl)cc1)N1CC(c2ccccc2)C(c2ccc(Cl)cc2)=N1 (stereo not drawn) [Compound 3]	8.15	8.15
O=S(=O)(N=C(N=C1CCCCN1)N1CC(c2ccccc2)C(c2ccc(Cl)cc2)=N1)c1ccc(Cl)cc1 (stereo not drawn) [Compound 6]	–	7.54
NC(=NC(=NS(=O)(=O)c1ccc(Cl)cc1)N1CC(c2ccccc2)C(c2ccc(Cl)cc2)=N1)C12CC3CC(CC(C3)C1)C2 (stereo not drawn) [Compound 7]	–	7.82
NC(=NC(=NS(=O)(=O)c1ccc(Cl)cc1)N1CC(c2ccccc2)C(c2ccc(Cl)cc2)=N1)c1ccc([N+](=O)[O-])cc1 (stereo not drawn) [Compound 9]	–	7.21
NC(=NC(=NS(=O)(=O)c1ccc(Cl)cc1)N1CC(c2ccccc2)C(c2ccc(Cl)cc2)=N1)c1ccc(F)cc1 (stereo not drawn) [Compound 10]	–	8.10
NC(COc1ccccc1)=NC(=NS(=O)(=O)c1ccc(Cl)cc1)N1CC(c2ccccc2)C(c2ccc(Cl)cc2)=N1 (stereo not drawn) [Compound 13]	–	7.14
NC(=NC(=NS(=O)(=O)c1ccc(Cl)cc1)N1CC(c2ccccc2)C(c2ccc(Cl)cc2)=N1)c1cccc(Br)c1 (stereo not drawn) [Compound 14]	–	7.25
NC(=NC(=NS(=O)(=O)c1ccc(Cl)cc1)N1CC(c2ccccc2)C(c2ccc(Cl)cc2)=N1)c1ccccc1F (stereo not drawn) [Compound 15]	–	7.72
COc1cccc(C(N)=NC(=NS(=O)(=O)c2ccc(Cl)cc2)N2CC(c3ccccc3)C(c3ccc(Cl)cc3)=N2)c1 (stereo not drawn) [Compound 17]	–	7.07
NC(=NC(=NS(=O)(=O)c1ccc(Cl)cc1)N1CC(c2ccccc2)C(c2ccc(Cl)cc2)=N1)c1ccc(F)cc1F (stereo not drawn) [Compound 19]	–	8.11
NC(=NC(=NS(=O)(=O)c1ccc(Cl)cc1)N1CC(c2ccccc2)C(c2ccc(Cl)cc2)=N1)c1ccc(Br)cc1 (stereo not drawn) [Compound 20]	–	7.57
NC(=NC(=NS(=O)(=O)c1ccc(Cl)cc1)N1CC(c2ccccc2)C(c2ccc(Cl)cc2)=N1)SCc1ccccc1 (stereo not drawn) [Compound 24]	–	6.90
NC(=NC(=NS(=O)(=O)c1ccc(Cl)cc1)N1CC(c2ccccc2)C(c2ccc(Cl)cc2)=N1)SCCc1ccccc1 (stereo not drawn) [Compound 25]	–	6.54
NC(=NC(=NS(=O)(=O)c1ccc(Cl)cc1)N1CC(c2ccccc2)C(c2ccc(Cl)cc2)=N1)SCCCc1ccccc1 (stereo not drawn) [Compound 26]	–	6.72

Compound	pKi (Table 1)	pKi (Table 2)
CC(N)=NC(=NS(=O)(=O)c1ccc(F)cc1)N1CC(c2ccccc2)C(c2ccc(Cl)cc2)=N1 (stereo not drawn) [Compound 27]	–	7.22
CC(N)=NC(=NS(=O)(=O)c1ccc(Br)cc1)N1CC(c2ccccc2)C(c2ccc(Cl)cc2)=N1 (stereo not drawn) [Compound 28]	–	7.74
CC(N)=NC(=NS(=O)(=O)c1ccc(I)cc1)N1CC(c2ccccc2)C(c2ccc(Cl)cc2)=N1 (stereo not drawn) [Compound 29]	–	8.00
CC(N)=NC(=NS(=O)(=O)c1ccccc1)N1CC(c2ccccc2)C(c2ccc(Cl)cc2)=N1 (stereo not drawn) [Compound 30]	–	6.94
CC(N)=NC(=NS(=O)(=O)c1ccc(C)cc1)N1CC(c2ccccc2)C(c2ccc(Cl)cc2)=N1 (stereo not drawn) [Compound 31]	–	7.06
COc1ccc(S(=O)(=O)N=C(N=C(C)N)N2CC(c3ccccc3)C(c3ccc(Cl)cc3)=N2)cc1 (stereo not drawn) [Compound 32]	–	6.74
CC(N)=NC(=NS(=O)(=O)c1ccc2ccccc2c1)N1CC(c2ccccc2)C(c2ccc(Cl)cc2)=N1 (stereo not drawn) [Compound 33]	–	8.10
C=CCN(CC=C)/C(N)=N/C(=N/S(=O)(=O)c1ccc(Cl)cc1)N1CC(c2ccccc2)C(c2ccc(Cl)cc2)=N1 (stereo not drawn) [Compound 35]	–	6.58
COCCN(CCOC)/C(N)=N/C(=N/S(=O)(=O)c1ccc(Cl)cc1)N1CC(c2ccccc2)C(c2ccc(Cl)cc2)=N1 (stereo not drawn) [Compound 39]	–	6.37
CN(Cc1cccnc1)C(N)=NC(=NS(=O)(=O)c1ccc(Cl)cc1)N1CC(c2ccccc2)C(c2ccc(Cl)cc2)=N1 (stereo not drawn) [Compound 48]	–	6.83
CN(Cc1ccccc1)/C(N)=N/C(=N/S(=O)(=O)c1ccc(Cl)cc1)N1CC(c2ccccc2)C(c2ccc(Cl)cc2)=N1 (stereo not drawn) [Compound 49]	–	6.46
N/C(=N\C(=N\S(=O)(=O)c1ccc(Cl)cc1)N1CC(c2ccccc2)C(c2ccc(Cl)cc2)=N1)NCc1ccccc1 (stereo not drawn) [Compound 50]	–	6.30
N/C(=N\C(=N\S(=O)(=O)c1ccc(Cl)cc1)N1CC(c2ccccc2)C(c2ccc(Cl)cc2)=N1)NCCc1ccccc1 (stereo not drawn) [Compound 51]	–	6.03
N/C(=N\C(=N\S(=O)(=O)c1ccc(Cl)cc1)N1CC(c2ccccc2)C(c2ccc(Cl)cc2)=N1)N1CCOCC1 (stereo not drawn) [Compound 52]	6.71	6.71
N/C(=N\C(=N\S(=O)(=O)c1ccc(Cl)cc1)N1CC(c2ccccc2)C(c2ccc(Cl)cc2)=N1)N1CCCCC1 (stereo not drawn) [Compound 53]	–	6.56

Further lines, results first:

pKi (Table 1)	pKi (Table 2)	Compound
6.77	–	CN(C)/C(N)=N/C(=N/S(=O)(=O)c1ccc(Cl)cc1)N1CC(c2ccccc2)C(c2ccc(Cl)cc2)=N1 (racemic) [Compound 44, rac-N-(amino(dimethylamino)methylene)-3-(4-chlorophenyl)-N-((4-chlorophenyl)sulfonyl)-4-phenyl-4,5-dihydro-1H-pyrazole-1-carboximidamide]
–	7.44	CC(C)(C)C(N)=NC(=NS(=O)(=O)c1ccc(Cl)cc1)N1C[C@H](c2ccccc2)C(c2ccc(Cl)cc2)=N1 [Compound 3E1]
–	7.54	CC(C)C(N)=NC(=NS(=O)(=O)c1ccc(Cl)cc1)N1CC(c2ccccc2)C(c2ccc(Cl)cc2)=N1 (stereo not drawn) [Compound 5]
–	7.22	NC(=NC(=NS(=O)(=O)c1ccc(Cl)cc1)N1CC(c2ccccc2)C(c2ccc(Cl)cc2)=N1)c1cccs1 (stereo not drawn) [Compound 16]
–	6.78	CC(C)SC(N)=NC(=NS(=O)(=O)c1ccc(Cl)cc1)N1CC(c2ccccc2)C(c2ccc(Cl)cc2)=N1 (stereo not drawn) [Compound 23]
–	6.27	CCCCN(CC)/C(N)=N/C(=N/S(=O)(=O)c1ccc(Cl)cc1)N1CC(c2ccccc2)C(c2ccc(Cl)cc2)=N1 (stereo not drawn) [Compound 36]
–	6.86	CCCN(CCC)/C(N)=N/C(=N/S(=O)(=O)c1ccc(Cl)cc1)N1CC(c2ccccc2)C(c2ccc(Cl)cc2)=N1 (stereo not drawn) [Compound 37]
–	7.31	CCN(CC)/C(N)=N/C(=N/S(=O)(=O)c1ccc(Cl)cc1)N1CC(c2ccccc2)C(c2ccc(Cl)cc2)=N1 (stereo not drawn) [Compound 38]
–	6.07	COCCN/C(N)=N/C(=N/S(=O)(=O)c1ccc(Cl)cc1)N1CC(c2ccccc2)C(c2ccc(Cl)cc2)=N1 (stereo not drawn) [Compound 40]
8.19	8.19	CC(C)(C)OC(=O)N/C(N)=N/C(=N/S(=O)(=O)c1ccc(Cl)cc1)N1CC(c2ccccc2)C(c2ccc(Cl)cc2)=N1 (stereo not drawn) [Compound 41]
–	7.64	CON(C)/C(N)=N/C(=N/S(=O)(=O)c1ccc(Cl)cc1)N1CC(c2ccccc2)C(c2ccc(Cl)cc2)=N1 (stereo not drawn) [Compound 42]
–	6.04	COCCN(C)/C(N)=N/C(=N/S(=O)(=O)c1ccc(Cl)cc1)N1CC(c2ccccc2)C(c2ccc(Cl)cc2)=N1 (stereo not drawn) [Compound 43]
–	7.31	CC(C)(C)N/C(N)=N/C(=N/S(=O)(=O)c1ccc(Cl)cc1)N1CC(c2ccccc2)C(c2ccc(Cl)cc2)=N1 (stereo not drawn) [Compound 46]
–	6.29	CC(C)N/C(N)=N/C(=N/S(=O)(=O)c1ccc(Cl)cc1)N1CC(c2ccccc2)C(c2ccc(Cl)cc2)=N1 (stereo not drawn) [Compound 47]
